Experiment: osmolality by vapor pressure osmometry
Details: no poloxamer
Experimental: The osmolality of LCMF poloxamer 188 in water was evaluated over the range 25 mg/mL to 400 mg/mL using vapor pressure osmometry (Table 7). […] Any solutions with osmolality values below 270 mOsm/kg or above 300 mOsm/kg are considered hypotonic and hypertonic respectively.
Drug substance was added to sterile water for injection at 6 concentrations ranging from 15% to 40% and the osmolality values of the solutions were recorded. Sodium chloride was then added to sterile water for injection to make six sodium chloride solutions with osmolality values matching those of the poloxamer 188 solutions. An isotonic 15% poloxamer 188 solution was used as a comparator.

[Cl-].[Na+] [NaCl, Sodium chloride]
Osmolality (0.36% (w/w) NaCl in SWFI): 116 mOsm/kg | Osmolality (0.74% (w/w) NaCl in SWFI): 224 mOsm/kg | Osmolality (1.35% (w/w) NaCl in SWFI): 432 mOsm/kg | Osmolality (3.13% (w/w) NaCl in SWFI): 995 mOsm/kg | Osmolality ([…] (w/w) NaCl in SWFI): 690 mOsm/kg

From US20190076466A1, “REDUCED SODIUM POLOXAMER-188 FORMULATIONS AND METHODS FOR USE” (MAST THERAPEUTICS, INC., priority 2015, published 2019)
